Measurements as given in publication PMC6093232, “PROMIS, global analysis of PROtein–metabolite interactions using size separation in Arabidopsis thaliana” (The Journal of Biological Chemistry, 2018).
Where two headings read alike, the source gives them in different places. Where a SMILES comes first, the peptide text is derived from it.

Legend:
KPHMT1 = molecular target: T1, KPHMT1 (Arabidopsis thaliana, UniProt O82357); assay: microscale thermophoresis; assay type: binding
T1 construct: N-terminal 144 bp of CDS (mitochondrial signal peptide, 48 residues) deleted; N-terminal His6 (pET300), E. coli BL21 Star (DE3); purified per Results, bacterial lysate used directly per Methods; RED-Tris-NTA labelled
T1 sequence (O82357 49-347): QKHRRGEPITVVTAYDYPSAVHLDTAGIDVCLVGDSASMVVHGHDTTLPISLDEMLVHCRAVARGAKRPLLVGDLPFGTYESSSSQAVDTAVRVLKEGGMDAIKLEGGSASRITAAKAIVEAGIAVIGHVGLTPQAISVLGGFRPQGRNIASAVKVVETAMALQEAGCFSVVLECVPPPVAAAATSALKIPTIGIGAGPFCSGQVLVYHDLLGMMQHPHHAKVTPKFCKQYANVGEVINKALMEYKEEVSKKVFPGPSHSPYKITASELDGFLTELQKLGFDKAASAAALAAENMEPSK

GAPCP1 [1] = molecular target: T2, GAPCP1 (Arabidopsis thaliana, UniProt Q9SAJ6); assay: nanoDSF thermal shift; assay type: binding; settings: 25 μM ligand; 0.2-0.25 mg/ml protein; PBS
T2 construct: N-terminal His6 (pDEST17), cloned from Arabidopsis cDNA, expressed in E. coli, SEC purified
T2 sequence (Q9SAJ6 whole entry): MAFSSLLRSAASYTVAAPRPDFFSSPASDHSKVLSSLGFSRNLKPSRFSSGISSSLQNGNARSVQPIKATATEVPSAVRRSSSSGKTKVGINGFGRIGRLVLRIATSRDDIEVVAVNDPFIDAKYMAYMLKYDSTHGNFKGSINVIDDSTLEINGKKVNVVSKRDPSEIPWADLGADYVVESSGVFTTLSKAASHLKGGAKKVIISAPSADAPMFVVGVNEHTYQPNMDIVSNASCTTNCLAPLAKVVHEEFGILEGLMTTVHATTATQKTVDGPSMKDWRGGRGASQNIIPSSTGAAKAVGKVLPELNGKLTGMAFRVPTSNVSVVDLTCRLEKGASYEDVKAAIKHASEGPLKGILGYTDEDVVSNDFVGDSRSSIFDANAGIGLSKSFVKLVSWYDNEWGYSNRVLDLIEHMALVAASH

GAPCP2 [2] = molecular target: T3, GAPCP2 (Arabidopsis thaliana, UniProt Q5E924); assay: nanoDSF thermal shift; assay type: binding; settings: 50 μM ligand; 0.2-0.25 mg/ml protein; PBS
T3 construct: N-terminal His6 (pDEST17), cloned from Arabidopsis cDNA, expressed in E. coli, SEC purified
T3 sequence (Q5E924 67-420): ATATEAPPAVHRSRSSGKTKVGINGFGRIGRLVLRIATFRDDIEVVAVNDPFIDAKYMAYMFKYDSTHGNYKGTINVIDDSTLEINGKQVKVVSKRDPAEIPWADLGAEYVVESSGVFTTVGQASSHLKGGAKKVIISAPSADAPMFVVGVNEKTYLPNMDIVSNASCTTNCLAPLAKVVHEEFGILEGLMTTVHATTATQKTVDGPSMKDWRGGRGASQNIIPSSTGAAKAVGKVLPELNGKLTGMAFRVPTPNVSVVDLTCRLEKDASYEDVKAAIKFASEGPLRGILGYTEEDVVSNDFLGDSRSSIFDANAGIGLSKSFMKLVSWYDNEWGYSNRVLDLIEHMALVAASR

GAPCP1 [3] = molecular target: T2, GAPCP1; assay: biochemical; parameters: nanoDSF thermal shift, intrinsic fluorescence ratio 350/330 nm, Prometheus NT.48; settings: 1x PBS
Procedure: (§1) Protein thermal stability measurements GAPC1/2, GAPCP1, and GAPCP2 proteins were obtained as described above, and the human GAPDH recombinant protein was obtained from a commercial supplier (Sigma) and stored in 10 mM Tris buffer (pH 7.5, 0.5 M NaCl). Tyr–Asp (25 μM), 3PGA (250 μM), and other dipeptides (25 μM) were prepared in 1× PBS buffer for the measurements using GAPC1/2 protein. For GAPCP1 Tyr–Asp (25 μM), 3PGA (250 μM) and other dipeptides (25 μM) were prepared in 1× PBS buffer, whereas for GAPCP2 Tyr–Asp (50 μM), 3PGA (250 μM) and other dipeptides (50 μM) were prepared in 1× PBS buffer. In addition, for the human GAPDH Tyr–Asp (500 μM), 3PGA (500 μM) and other dipeptides (500 μM) were prepared in Tris buffer (10 mM Tris-HCl, pH 7.5, 0.5 M NaCl). In accordance, GAPDH (1 μM) and GAPCs (0.2–0.25 mg/ml) were diluted using Tris or PBS buffer, respectively. Capillaries were loaded into the Prometheus NT.48 (Nanotemper). Unfolding was detected during heating in a linear thermal ramp (2 °C min^−1, 20–90 °C) with an excitation power of 60–100%. Temperature-dependent protein unfolding was determined from changes in tryptophan and tyrosine fluorescence at emission wavelengths of 350 and 330 nm. Melting temperatures were determined by detecting the maximum of the first derivative of the fluorescence ratios (F350 nm/F330 nm) as described previously ([43]). To validate the binding, we first tested a commercially available human homolog of GAPC1, GAPDH. Subsequently, plant GAPC1/2, GAPCP1, and GAPCP2 were overexpressed and purified from E. coli. Binding was probed using nano-DSF technology from Nanotemper (Prometheus NT.48; see under “Experimental procedures”). Prometheus NT.48 traces protein thermal stability by recording changes in the tryptophan residues during protein unfolding in an increasing temperature gradient. The melting temperature (Tm) of GAPDH was calculated as 60 °C, GAPC1/2 to 54 °C, GAPCP1 to 55 °C, and GAPCP2 to 55 °C (Fig. 7, C–F; Tables S5 and S6). […] Analogous results were obtained for Tyr–Asp. More specifically, 500 μM Tyr–Asp stabilized GAPDH by ∼1.1 °C, whereas 25–50 μM Tyr–Asp destabilized GAPC1/2, GAPCP1, and GAPCP2 by ∼1, 2, and 1.5 °C, respectively (Fig. 7, C–F; Tables S5 and S6). The obtained results validate the interaction between Tyr–Asp and plant glyceraldehyde-3-P dehydrogenases. The interaction is conserved in the human enzyme.

GAPCP2 [4] = molecular target: T3, GAPCP2; assay: biochemical; parameters: nanoDSF thermal shift, intrinsic fluorescence ratio 350/330 nm, Prometheus NT.48; settings: 1x PBS
Procedure: as §1

GAPDH [5] = molecular target: T4, GAPDH (Homo sapiens, UniProt P04406); assay: biochemical; parameters: nanoDSF thermal shift, intrinsic fluorescence ratio 350/330 nm, Prometheus NT.48; settings: 10 mM Tris pH 7.5, 0.5 M NaCl
T4 construct: commercial human recombinant protein (Sigma)
T4 sequence (P04406 2-335): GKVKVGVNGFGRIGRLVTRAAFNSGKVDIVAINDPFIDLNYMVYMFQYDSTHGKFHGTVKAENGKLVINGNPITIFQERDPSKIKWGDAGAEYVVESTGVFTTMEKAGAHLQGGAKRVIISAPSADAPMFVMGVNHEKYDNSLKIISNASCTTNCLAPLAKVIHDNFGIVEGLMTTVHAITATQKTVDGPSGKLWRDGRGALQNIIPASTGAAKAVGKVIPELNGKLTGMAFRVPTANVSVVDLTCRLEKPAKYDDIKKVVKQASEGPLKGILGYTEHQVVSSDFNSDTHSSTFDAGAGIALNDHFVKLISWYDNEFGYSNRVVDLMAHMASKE
Procedure: as §1

GAPCP1 [6] = molecular target: T2, GAPCP1; assay: biochemical; parameters: nanoDSF thermal shift; Tm from ratio of tryptophan fluorescence at 350 and 330 nm
Procedure: (§2) GAPC1/2, GAPCP1, and GAPCP2 proteins were obtained as described above, and the human GAPDH recombinant protein was obtained from a commercial supplier (Sigma) and stored in 10 mM Tris buffer (pH 7.5, 0.5 M NaCl). Tyr–Asp (25 μM), 3PGA (250 μM), and other dipeptides (25 μM) were prepared in 1× PBS buffer for the measurements using GAPC1/2 protein. For GAPCP1 Tyr–Asp (25 μM), 3PGA (250 μM) and other dipeptides (25 μM) were prepared in 1× PBS buffer, whereas for GAPCP2 Tyr–Asp (50 μM), 3PGA (250 μM) and other dipeptides (50 μM) were prepared in 1× PBS buffer. In addition, for the human GAPDH Tyr–Asp (500 μM), 3PGA (500 μM) and other dipeptides (500 μM) were prepared in Tris buffer (10 mM Tris-HCl, pH 7.5, 0.5 M NaCl). […] Unfolding was detected during heating in a linear thermal ramp (2 °C min^−1, 20–90 °C) with an excitation power of 60–100%. Temperature-dependent protein unfolding was determined from changes in tryptophan and tyrosine fluorescence at emission wavelengths of 350 and 330 nm. Melting temperatures were determined by detecting the maximum of the first derivative of the fluorescence ratios (F350 nm/F330 nm) as described previously ([43]). […] The melting temperature (Tm) of GAPDH was calculated as 60 °C, GAPC1/2 to 54 °C, GAPCP1 to 55 °C, and GAPCP2 to 55 °C (Fig. 7, C–F; Tables S5 and S6). […]

GAPCP2 [7] = molecular target: T3, GAPCP2; assay: biochemical; parameters: nanoDSF thermal shift; Tm from ratio of tryptophan fluorescence at 350 and 330 nm
Procedure: as §2

MTI = molecular target: T5, MTI (Arabidopsis thaliana, UniProt Q9ZUG4); assay: microscale thermophoresis; assay type: binding
T5 construct: gene At2g05830; N-terminal His6 (pET300), E. coli BL21 Star (DE3), Ni-NTA purified; RED-Tris-NTA labelled
T5 sequence (Q9ZUG4 1-374): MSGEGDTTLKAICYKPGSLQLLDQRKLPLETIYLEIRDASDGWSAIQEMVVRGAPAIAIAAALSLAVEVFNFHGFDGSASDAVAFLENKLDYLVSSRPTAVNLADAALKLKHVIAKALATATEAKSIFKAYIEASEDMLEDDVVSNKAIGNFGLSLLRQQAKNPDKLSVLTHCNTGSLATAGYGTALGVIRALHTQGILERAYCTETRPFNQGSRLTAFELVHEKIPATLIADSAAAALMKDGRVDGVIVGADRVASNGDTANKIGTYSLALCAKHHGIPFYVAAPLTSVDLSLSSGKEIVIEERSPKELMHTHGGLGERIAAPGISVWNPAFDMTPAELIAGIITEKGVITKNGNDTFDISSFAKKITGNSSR

GAPDH [8] = molecular target: T4, GAPDH; assay: nanoDSF thermal shift; assay type: binding; settings: 500 μM ligand; 1 μM protein; 10 mM Tris-HCl pH 7.5, 0.5 M NaCl

Row | Compound | ΔTm at 25 µM (GAPCP1 [3]) [°C] | ΔTm at 50 µM (GAPCP2 [4]) [°C] | ΔTm at 500 µM (GAPDH [5]) [°C] | further results
1 | CC(C)(CO)[C@@H](O)C(=O)NCCC(=O)O [pantothenate] | – | – | – | Kd (KPHMT1): 500 µM
2 | N[C@@H](Cc1ccc(O)cc1)C(=O)N[C@@H](CC(=O)O)C(=O)O [Tyr–Asp] (H-Tyr-Asp-OH) | – | – | – | dTm (destabilized) (GAPCP1 [1]): ~ 2 °C; dTm (destabilized) (GAPCP2 [2]): ~ 1.5 °C; ΔTm at 25 µM (GAPCP1 [3]; experiment 1): -1.56 °C; ΔTm at 25 µM (GAPCP1 [3]; experiment 2): -2.09 °C; ΔTm at 25 µM (GAPCP1 [3]; experiment 3): -2.2 °C; ΔTm at 25 µM (GAPCP1 [3]; experiment 4): -2.06 °C; ΔTm at 50 µM (GAPCP2 [4]; experiment 1): -1.6 °C; ΔTm at 50 µM (GAPCP2 [4]; experiment 2): -1.58 °C; ΔTm at 50 µM (GAPCP2 [4]; experiment 3): -1.55 °C; ΔTm at 50 µM (GAPCP2 [4]; experiment 4): -1.23 °C; ΔTm at 500 µM (GAPDH [5]; experiment 1): 2.2 °C; ΔTm at 500 µM (GAPDH [5]; experiment 2): 1.31 °C; ΔTm at 500 µM (GAPDH [5]; experiment 4): 1.06 °C; ΔTm at 25 µM (GAPCP1 [6]): -2.06 °C; ΔTm at 50 µM (GAPCP2 [7]): -1.23 °C
3 | NCC(=O)N1CCC[C@H]1C(=O)O [GlyPro] (H-Gly-Pro-OH) | -0.11 | 0.55 | 0.1 | –
4 | CSC[C@H]1O[C@@H](n2cnc3c(N)ncnc32)[C@H](O)[C@@H]1O [MTA] | – | – | – | Kd (MTI): 4 µM
5 | N[C@@H](Cc1c[nH]cn1)C(=O)N[C@@H](Cc1ccc(O)cc1)C(=O)O [His–Tyr] (H-His-Tyr-OH) | -0.02 | 0.22 | -1.2 | dTm (GAPDH [8]): Tm of the human GAPDH was affected by the presence of two other Tyr-containing dipeptides
6 | CC(C)C[C@H](N)C(=O)N[C@@H](Cc1ccccc1)C(=O)O [LeuPhe] (H-Leu-Phe-OH) | -0.33 | 0.2 | 0.2 | –

Further lines, with some results ahead:

Row | ΔTm at 25 µM (GAPCP1 [3]) [°C] | ΔTm at 50 µM (GAPCP2 [4]) [°C] | ΔTm at 500 µM (GAPDH [5]) [°C] | Compound | further results
7 | 0.15 | 1.67 | 2.2 | CC(C)C[C@H](NC(=O)[C@@H](N)Cc1ccc(O)cc1)C(=O)O [TyrLeu] (H-Tyr-Leu-OH) | –
8 | -0.01 | 0.66 | 0.2 | CSCC[C@H](NC(=O)[C@@H](N)[C@@H](C)O)C(=O)O [ThrMet] (H-Thr-Met-OH) | –
9 | -0.1 | -0.12 | 0.1 | O=C(O)CC[C@H](NC(=O)[C@@H]1CCCN1)C(=O)O [ProGlu] (H-Pro-Glu-OH) | –
